This assay concerns tissue factor mRNA in LPS-stimulated mouse peritoneal macrophages. The assay is described as follows: Assay of mouse peritoneal macrophage tissue factor mRNA. It counts as cell-based. The conditions noted are these: for mrna remaining at 1 µM: test compound 1 μM. As for the experimental part: 3 ml of thioglycolate (Sigma Chemical) were administered into the abdominal cavity of male C57BL/6J mice (Charles River) followed 4 days later by intraperitoneal administration of 10 ml of phosphate-buffered saline (hereinafter PBS) containing heparin (Hishiyama Pharmaceutical) at a concentration of 5 U/ml and recovery of intraperitoneal macrophages using a syringe. After centrifuging the recovered macrophages at 1000 rpm and 4° C. for 5 minutes, the supernatant was discarded followed by suspending in RPMI 1640 medium (Gibco Laboratories) containing normal fetal bovine serum (hereinafter FBS) at a concentration of 10%. The macrophages were adjusted to a concentration of 4×10^6 cells/ml, disseminated in 1 ml aliquots in a 12-well plate, and cultured for 3 hours at 37° C. using a CO2 incubator. Subsequently, the cells were washed with PBS, and the medium was replaced with RPMI medium containing lipoprotein-deficient serum (hereinafter LPDS) (Sigma Chemical) at a concentration of 5%. Test compounds dissolved in dimethylsulfoxide (DMSO) at a concentration of 1 μM were added to make a final DMSO concentration of 0.1%, and after warming for 18 hours at 37° C., lipopolysaccharide (hereinafter LPS) (Sigma Chemical) was added to make a concentration of 100 ng/ml. The cells were recovered 6 hours later, RNA was extracted using the Rneasy Mini Kit (Qiagen), and after carrying out a reverse transcription reaction using the First-Strand cDNA Synthesis Kit (Amersham Biosciences), the expressed amounts of tissue factor mRNA and cyclophylin mRNA were measured by quantitative RT-PCR (TaqMan, Applied Biosystems 7700 Sequence Detector).
Quantitative RT-PCR for tissue factor was carried out using the aforementioned TF-1 and TF-2 as primers and TF-P as probes, while quantitative PCR for cyclophilin was carried out using the aforementioned Cyl-1 and Cyl-2 as primers and Cyl-P as probes. Both were carried out by warming for 2 minutes at 50° C. and then for 10 minutes at 95° C., followed by 40 warming cycles consisting of warming for 15 seconds at 95° C. and then for 1 minute at 60° C. The expressed amount of tissue factor mRNA was calculated as a relative value of the expressed amount of cyclophilin mRNA. The expressed amounts of tissue factor mRNA resulting from the test compounds at a concentration of 1 μM or 10 μM based on a value of 100 for the expressed amount of tissue factor mRNA in a case of treatment with DMSO at a concentration of […] are shown in Table 7.

The mark [1] stands for this setting: 18 h, then LPS 100 ng/ml for 6 h, relative to cyclophilin mRNA, DMSO treatment = 100, read-out: Expressed Amount of Tissue Factor mRNA.
The mark [2] stands for this setting: test compound 10 μM, 18 h, then LPS 100 ng/ml for 6 h, relative to cyclophilin mRNA, DMSO treatment = 100, read-out: Expressed Amount of Tissue Factor mRNA.

Each structure is given as a SMILES string. Like-named read-outs stand apart in the source and are kept apart here.

Take `CN(C(=S)C1CC1)c1ccc(OCc2cc3c(F)cc(F)cc3n2C(=O)OC(C)(C)C)cc1` [Reference Example 4, tert-Butyl 2-({4-[(cyclopropylcarbonothioyl)(methyl)amino]phenoxy}methyl)-4,6-difluoro-1H-indole-1-carboxylate]: the mrna remaining at 1 µM under setting [1] worked out at 57.6%.
For the compound `CC(C)(C)OC(=O)c1c(COc2ccc(-c3ccc(CC(=O)O)cc3C(F)(F)F)cc2)ccc(C(F)(F)F)c1O` [Reference Example 27, (4′-{[2-(tert-Butoxycarbonyl)-3-hydroxy-4-(trifluoromethyl)benzyl]oxy}-2-trifluoromethyl-1,1′-biphenyl-4-yl)acetic acid], the mrna remaining at 1 µM under setting [1] was 63.5%.
With `CC(C)(C)OC(=O)c1c(COc2ccc(-c3ccc(C4(C(=O)O)CC4)cc3)cc2)ccc(C(F)(F)F)c1O` [Reference Example 28, 1-(4′-{[2-(tert-Butoxycarbonyl)-3-hydroxy-4-(trifluoromethyl)benzyl]oxy}-1,1′-biphenyl-4-yl)cyclopropanecarboxylic acid], the mrna remaining at 10 µM under setting [2] worked out at 41.7%.
Consider `CC(C)c1ccc(COc2ccc(-c3ccc(CC(=O)O)cc3)cc2)c(C(=O)OC(C)(C)C)c1O` [Reference Example 18, (4′-{[2-(tert-Butoxycarbonyl)-3-hydroxy-4-isopropylbenzyl]oxy}-1,1′-biphenyl-4-yl)acetic acid], for which the mrna remaining at 1 µM under setting [1] was 56.9%.
For `CC(C)(C)OC(=O)c1c(COc2ccc(-c3ccc(C(CO)C(=O)O)cc3)cc2)ccc(C(F)(F)F)c1O` (stereo not drawn) [Reference Example 32, 2-(4′-{[2-(tert-Butoxycarbonyl)-3-hydroxy-4-(trifluoromethyl)benzyl]oxy}-1,1′-biphenyl-4-yl)-3-hydroxypropanoic acid], under setting [2], the mrna remaining at 10 µM came to 48.5%.
Take `CN(C(=O)C1CC1)c1ccc(OCc2ccc(C(F)(F)F)c(O)c2C(=O)OC(C)(C)C)cc1` [Reference Example 5, tert-Butyl 6-({4-[(cyclopropylcarbonyl)(methyl)amino]phenoxy}methyl)-2-hydroxy-3-(trifluoromethyl)benzoate]: the mrna remaining at 1 µM under setting [1] was 64.3%.
As for `C[C@H](CCC(=O)N(C)C)[C@H]1CCC2C3CC=C4C[C@@H](O)CC[C@]4(C)C3CC[C@@]21C` (stereo partly drawn) [Compound J, N,N-Dimethyl-3β-hydroxycholenamide, reference compound], where the note is “6 h, read-out: Expressed Amount of Tissue Factor mRNA”, the mrna remaining at 10 µM amounted to 39.3%.
Take `CC(C)(C)OC(=O)c1c(COc2ccc(-c3ccc(CC(=O)O)c(Cl)c3)cc2)ccc(C(F)(F)F)c1O` [Reference Example 14, (4′-{[2-(tert-Butoxycarbonyl)-3-hydroxy-4-(trifluoromethyl)benzyl]oxy}-3-chloro-1,1′-biphenyl-4-yl)acetic acid]: the mrna remaining at 1 µM under setting [1] amounted to 61.2%.
Turning to `CC(C)(C)OC(=O)n1c(COc2ccc(-c3ccc(CC(=O)O)cc3)cc2)cc2ccc(F)cc21` [Reference Example 9, (4′-{[1-(tert-Butoxycarbonyl)-6-fluoro-1H-indol-2-yl]methoxy}-1,1′-biphenyl-4-yl)acetic acid], under setting [1], the mrna remaining at 1 µM came to 66%.
Still for that read-out and setting: for `CC(C)(C)OC(=O)c1c(COc2ccc(-c3ccc(CC(=O)O)cc3[N+](=O)[O-])cc2)ccc(C(F)(F)F)c1O` [Reference Example 22, (4′-{[2-(tert-Butoxycarbonyl)-3-hydroxy-4-(trifluoromethyl)benzyl]oxy}-2-nitro-1,1′-biphenyl-4-yl)acetic acid] the value was 54%.
For `CC(C)(C)OC(=O)c1c(COc2ccc(-c3ccc(CC(=O)O)cc3)cc2)ccc(Cl)c1O` [Reference Example 20, (4′-{[2-(tert-Butoxycarbonyl)-4-chloro-3-hydroxybenzyl]oxy}-1,1′-biphenyl-4-yl)acetic acid], the mrna remaining at 10 µM under setting [2] was 58.1%.
Regarding `CC(C)c1cc(CC(=O)O)ccc1-c1ccc(OCc2ccc(C(F)(F)F)c(O)c2C(=O)OC(C)(C)C)cc1` [Reference Example 33, (4′-{[2-(tert-Butoxycarbonyl)-3-hydroxy-4-(trifluoromethyl)benzyl]oxy}-2-isopropyl-1,1′-biphenyl-4-yl)acetic acid], under setting [2], the mrna remaining at 10 µM was determined as 37.2%.

Source of the values: US20080255111A1, “Tissue Factor Production Inhibitor” (SANKYO COMPANY LIMITED, priority 2004, published 2008).
